Measured values: article PMC5653977 (EMBO Molecular Medicine, 2017)
Structures can show the parent of a compound that is named as a salt.

Test system: NRG1-ERBB4 signaling
Assay: Nrg1-ERBB4-PIK3R1 split TEV co-culture compound screen of the NIH Clinical Collection
Type: cell-based, human
From the text: For our HTS‐compatible split TEV assay approach, human full‐length ERBB4‐Cyt1 was fused to the NTEV fragment, a TEV protease cleavage site (tevS) and the artificial co‐transcriptional activator Gal4‐VP16 (ERBB4‐NTEV‐tevS‐GV); human PIK3R1 was fused to the CTEV fragment (PIK3R1‐CTEV) (Fig 1A). Upon ERBB4 activation, PIK3R1 is recruited to the receptor resulting in a reconstituted protease activity that cleaves off GV. In turn, released GV translocates to the nucleus and binds to upstream activating sequences (UAS) to activate the transcription of a firefly luciferase reporter gene (Fig 1A). A constitutively expressed Renilla luciferase driven under the control of the human thymidine kinase (TK) promoter was used as control to address off‐target effects related to toxicity.
For small molecule screening, the NIH‐NCC Clinical Collection library (sets NCC‐003 and NCC‐201) was used containing 727 small molecules that are FDA‐approved and have a history in clinical applications (www.nihclinicalcollection.com). A Hamilton Labstar robot connected to 37 and 4°C incubators for cell incubation and compound storage and application (Cytomat automated incubator, ThermoScientific) and to a luciferase reader (Berthold Technologies) was used to automatically perform the screening. […] Each batch was screened three times.
For one 96‐well plate, 4 × 10^6 PC12 cells were harvested and diluted in 5 ml assay medium (phenol red‐free DMEM (low glucose, Life Technologies), 10% FCS, 5% HS, no antibiotics). The split TEV assay plasmids (2 μg pcDNA3_ERBB4‐NTEV‐tevS‐GV‐2xHA, 2 μg pTag4C_PIK3R1‐CTEV‐2xHA, 2 μg p5xUAS_firefly luciferase, 2 μg pTK_Renilla luciferase, and 0.5 μg pECFP‐C1 for examining transfection efficiency) were diluted in 2.5 ml Opti‐MEM (Life Technologies) and vortexed. In parallel, 20 μl of the transfection reagent Lipofectamine 2000 was diluted in 2.5 ml Opti‐MEM and vortexed.
For plating of one 96‐well plate, 10 ml suspension, containing the 4 × 10^6 in solution‐transfected cells, was placed in the bubble paddle reservoir of the Hamilton Cellstar robot. 100 μl was seeded per 96‐well using the 96‐tip pipetting head. The homogeneity of the cell suspension was guaranteed over time by mild stirring using the paddling device inside the reservoir. For five plates each, 50 ml of additional cell suspension was used to allow for losses of inaccessible volume.
The cells were allowed to express the plasmids for 24 h before compounds were added. Proper expression and transfection efficiency were verified by ECFP expression on a clear control plate. The compounds were applied in a final concentration of 10 μM using DMSO as diluent. […] Thirty minutes later, 10,000 Nrg1‐expressing PC12 cells in 100 μl assay medium were seeded on top. 24 h after addition of the compounds, the cells were lysed using 40 μl Passive Lysis buffer (Promega) and subjected to a Dual Luciferase Assay (Promega) according to the manufacturer's instructions. The data were analyzed in R Bioconductor using the package cellHTS2 (http://www.bioconductor.org/packages/devel/bioc/html/cellHTS2.html), assessed using the z‐score, and visualized using the program Mondrian (http://stats.math.uni-augsburg.de/mondrian/).

[1] = compounds at 10 μM, 24 h, PC12 split TEV assay cells co-cultured with Nrg1-expressing PC12 cells, analysed with cellHTS2
[2] = NIH Clinical Collection NCC-003 raw data, compounds ranked by Z-score, 'flagged' given instead of a Z-score
[3] = compound screen of the NIH Clinical Collection, sheet raw data NCC-003, compounds ranked by Z-score

| Compound | Z-SCORE [1] | Z-SCORE [3] | further results |
| --- | --- | --- | --- |
| CCCC1O[C@@H]2C[C@H]3[C@@H]4CCC5=CC(=O)C=C[C@]5(C)[C@H]4[C@@H](O)C[C@]3(C)[C@]2(C(=O)CO)O1 (stereo partly shown) [BUDESONIDE, reference compound] | -0.46 |  |  |
| CCCCNc1cc(C(=O)O)cc(S(N)(=O)=O)c1Oc1ccccc1 [BUMETANIDE, reference compound] | -0.03 |  |  |
| CC(NC(C)(C)C)C(=O)c1cccc(Cl)c1 (stereo not shown) [BUPROPION HYDROCHLORIDE] |  |  | Z-SCORE [2]: -2.1 |
| C[C@H]1C[C@H]2[C@@H]3CCC4=CC(=O)C=C[C@]4(C)[C@@]3(Cl)[C@@H](O)C[C@]2(C)[C@@]1(O)C(=O)CO [Beclomethasone] |  | -0.67 |  |
| NS(=O)(=O)c1cc2c(cc1C(F)(F)F)NC(Cc1ccccc1)NS2(=O)=O (stereo not shown) [Bendrofluazide, reference compound] | 0.53 |  |  |
| N#CCc1ccccc1 [Benzeneacetonitrile] |  | 0.03 |  |
| C[C@H]1C[C@H]2[C@@H]3CCC4=CC(=O)C=C[C@]4(C)[C@@]3(F)[C@@H](O)C[C@]2(C)[C@@]1(O)C(=O)CO [Betamethasone, reference compound] | 3.82 |  |  |
| CC(C)NCC(O)COc1ccc(CCOCC2CC2)cc1 (stereo not shown) [Betaxolol hydrochloride] |  | 1.56 |  |
| c1ccc(-c2ccc(C(c3ccccc3)n3ccnc3)cc2)cc1 (stereo not shown) [Bifonazole, reference compound] | -3.45 |  | Z-SCORE [2]: -3.45 |
| Brc1c(NC2=NCCN2)ccc2nccnc12 [Brimonidine, reference compound] | 0.01 |  |  |
| COc1cc2c(cc1OC)[C@@]13CCN4CC5=CCO[C@H]6CC(=O)N2[C@H]1[C@H]6[C@H]5C[C@H]43 [Brucine] |  | 0.21 |  |
| COc1cc(OC)c(C(=O)CCCN2CCCC2)c(OC)c1.Cl [Buflomedil HCl] |  | 0.75 |  |
| O=C1CC2(CCCC2)CC(=O)N1CCCCN1CCN(c2ncccn2)CC1 [Buspar, reference compound] | -0.01 |  |  |
| CS(=O)(=O)OCCCCOS(C)(=O)=O [Busulfan, reference compound] | 0.13 |  |  |
| C=C1/C(=C\C=C2/CCC[C@]3(C)[C@@H]([C@H](C)/C=C/[C@@H](O)C4CC4)CC[C@@H]23)C[C@@H](O)C[C@@H]1O [CALCIPOTRIOL] |  | -0.04 |  |
| C=C1/C(=C\C=C2/CCC[C@]3(C)[C@@H]([C@H](C)CCCC(C)(C)O)CC[C@@H]23)C[C@@H](O)C[C@@H]1O [CALCITRIOL] |  | -0.48 |  |
| C[C@H](CS)C(=O)N1CCC[C@H]1C(=O)O [CAPTOPRIL, reference compound] | -0.02 |  |  |
| C[C@@](Cc1ccc(O)c(O)c1)(NN)C(=O)O [CARBIDOPA, reference compound] | -1.58 |  |  |
| CCCCCCNC(=O)n1cc(F)c(=O)[nH]c1=O [CARMOFUR] |  |  | Z-SCORE [2]: -2.48 |
| OC[C@H]1O[C@@H](n2cnc3c(NC4CCCC4)nc(Cl)nc32)[C@H](O)[C@@H]1O [CCPA] |  |  | Z-SCORE [2]: -1.19 |
| N[C@@H](C(=O)N[C@@H]1C(=O)N2C(C(=O)O)=C(Cl)CS[C@H]12)c1ccccc1 [CEFACLOR] |  | -0.62 |  |
| CC(O)CO.N[C@@H](C(=O)N[C@@H]1C(=O)N2C(C(=O)O)=C(CSc3cn[nH]n3)CS[C@H]12)c1ccc(O)cc1 [CEFATRIZINE PROPYLENE GLYCOL] |  | 0.04 |  |
| Cc1nnc(SCC2=C(C(=O)O)N3C(=O)[C@@H](NC(=O)Cn4cnnn4)[C@H]3SC2)s1 [CEFAZOLIN SODIUM SALT, reference compound] | -0.74 |  |  |
| C=CC1=C(C(=O)O)N2C(=O)[C@@H](NC(=O)/C(=N\OCC(=O)O)c3csc(N)n3)[C@H]2SC1 [CEFIXIME TRIHYDRATE] |  | 1.63 |  |

| Compound | Z-SCORE [1] | Z-SCORE [3] | further results |
| --- | --- | --- | --- |
| CO/N=C(\C(=O)N[C@@H]1C(=O)N2C(C(=O)O)=C(COC(C)=O)CS[C@H]12)c1csc(N)n1 [CEFOTAXIME SODIUM SALT, reference compound] | -0.2 |  |  |
| CO[C@@]1(NC(=O)Cc2cccs2)C(=O)N2C(C(=O)O)=C(COC(N)=O)CS[C@@H]21 [CEFOXITIN SODIUM SALT, reference compound] | 2.55 |  |  |
| COCC1=C(C(=O)OC(C)OC(=O)OC(C)C)N2C(=O)[C@@H](NC(=O)/C(=N\OC)c3csc(N)n3)[C@H]2SC1 (stereo partly shown) [CEFPODOXIME PROXETIL] |  | 0.53 |  |
| COCc1c(C(C)C)nc(C(C)C)c(/C=C/[C@@H](O)C[C@@H](O)CC(=O)[O-])c1-c1ccc(F)cc1.[Na+] [CERIVASTATIN Na] |  |  | Z-SCORE [2]: flagged |
| NC[C@H]1CC[C@H](C(=O)Oc2ccc(CCC(=O)O)cc2)CC1 [CETRAXATE HCl] |  | 0.04 |  |
| CN1CCN(c2nc3cc(C(F)(F)F)ccc3n3cccc23)CC1.O=C(O)/C=C\C(=O)O.O=C(O)/C=C\C(=O)O [CGS 12066B] |  | 0.3 |  |
| Nc1nc2ccc(Cl)cc2c2nc(-c3ccco3)nn12 [CGS 15943, reference compound] |  | 6.59 |  |
| O=C(O)CCCc1ccc(N(CCCl)CCCl)cc1 [CHLORAMBUCIL, reference compound] | 0.14 |  |  |
| CNC1=Nc2ccc(Cl)cc2C(c2ccccc2)=[N+]([O-])C1 [CHLORDIAZEPOXIDE] |  | 0.41 |  |
| CC[C@H]1OC(=O)[C@H](C)[C@@H](O[C@H]2C[C@@](C)(OC)[C@@H](O)[C@H](C)O2)[C@H](C)[C@@H](O[C@@H]2O[C@H](C)C[C@H](N(C)C)[C@H]2O)[C@](C)(OC)C[C@@H](C)C(=O)[C@H](C)[C@@H](O)[C@]1(C)O [CLARITHROMYCIN] |  | 0.55 |  |
| CCC(=O)O[C@]1(C(=O)CCl)[C@@H](C)C[C@H]2[C@@H]3CCC4=CC(=O)C=C[C@]4(C)[C@@]3(F)[C@@H](O)C[C@@]21C [CLOBETASOL PROPIONATE, reference compound] | -2.64 |  |  |
| CC(C)/N=c1\cc2n(-c3ccc(Cl)cc3)c3ccccc3nc-2cc1Nc1ccc(Cl)cc1 [CLOFAZIMINE] |  |  | Z-SCORE [2]: flagged |
| Clc1ccccc1C(c1ccccc1)(c1ccccc1)n1ccnc1 [CLOTRIMAZOLE] |  | -0.73 |  |
| C[C@]12C[C@H](O)[C@H]3[C@@H](CCC4=CC(=O)CC[C@@]43C)[C@@H]1CC[C@@H]2C(=O)CO [CORTICOSTERONE] |  | 0.4 |  |
| CC(=O)OCC(=O)[C@@]1(O)CC[C@H]2[C@@H]3CCC4=CC(=O)CC[C@]4(C)[C@H]3C(=O)C[C@@]21C [CORTISONE ACETATE, reference compound] | 0.08 |  |  |
| C[C@]12CCC(=O)C=C1CC[C@@H]1[C@@H]2C(=O)C[C@@]2(C)[C@H]1CC[C@]2(O)C(=O)CO [CORTISONE] |  | 0.26 |  |
| COc1cc(CNC(=O)CCCC/C=C/C(C)C)ccc1O [Capsaicin] |  | -0.46 |  |
| NC(=O)N1c2ccccc2C=Cc2ccccc21 [Carbamazepine, reference compound] | -0.83 |  |  |
| CN(C)CCOC(c1ccc(Cl)cc1)c1ccccn1 (stereo not shown) [Carbinoxamine Maleate, reference compound] | -0.31 |  |  |
| COC(=O)C1=C(C)NC(C)=C(C(=O)OCCN(C)Cc2ccccc2)C1c1cccc([N+](=O)[O-])c1 (stereo not shown) [Cardene, reference compound] | -1.07 |  |  |
| CCCC(C)(COC(N)=O)COC(=O)NC(C)C (stereo not shown) [Carisoprodol, reference compound] | -0.82 |  |  |
| COc1ccccc1OCCNCC(O)COc1cccc2[nH]c3ccccc3c12 (stereo not shown) [Carvedilol] |  |  | Z-SCORE [2]: -1.89 |
| CO/N=C(\C(=O)N[C@@H]1C(=O)N2C(C(=O)O)=C(COC(N)=O)CS[C@H]12)c1ccco1 [Cefuroxime, reference compound] | 0.08 |  |  |
| Cc1ccc(-c2cc(C(F)(F)F)nn2-c2ccc(S(N)(=O)=O)cc2)cc1 [Celecoxib, reference compound] | -0.36 |  |  |
